Reference: patent US20240208992A1, “MACROCYCLES AS CFTR MODULATORS” (Idorsia Pharmaceuticals Ltd, priority 2021, published 2024)

Biological target: human F508del-CFTR (Homo sapiens, UniProt P13569, DEL508-508)
Experiment: F508del-CFTR cell surface expression (corrector activity), DiscoveRx ß-galactosidase complementation chemiluminescence assay in recombinant U2OS cell line;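 also: U2OS cells co-expressing ProLink-tagged F508del-CFTR and a membrane-anchored enzyme acceptor, where more surface CFTR restores β-galactosidase activity measured by chemiluminescence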
Details: for EC50: EC50, F508del-CFTR cell surface expression, geomean values; for Emax: U2OS, arithmetic mean values
[1] = U2OS cell line, 16h compound incubation
[2] = in relation to the Emax of the corrector lumacaftor (=100%), U2OS cell line, 16h compound incubation
[3] = U2OS cells, 16h compound incubation
[4] = in relation to Emax of corrector lumacaftor (=100%)

human F508del-CFTR, sequence (P13569 with tags, fused parts or gaps DEL508-508): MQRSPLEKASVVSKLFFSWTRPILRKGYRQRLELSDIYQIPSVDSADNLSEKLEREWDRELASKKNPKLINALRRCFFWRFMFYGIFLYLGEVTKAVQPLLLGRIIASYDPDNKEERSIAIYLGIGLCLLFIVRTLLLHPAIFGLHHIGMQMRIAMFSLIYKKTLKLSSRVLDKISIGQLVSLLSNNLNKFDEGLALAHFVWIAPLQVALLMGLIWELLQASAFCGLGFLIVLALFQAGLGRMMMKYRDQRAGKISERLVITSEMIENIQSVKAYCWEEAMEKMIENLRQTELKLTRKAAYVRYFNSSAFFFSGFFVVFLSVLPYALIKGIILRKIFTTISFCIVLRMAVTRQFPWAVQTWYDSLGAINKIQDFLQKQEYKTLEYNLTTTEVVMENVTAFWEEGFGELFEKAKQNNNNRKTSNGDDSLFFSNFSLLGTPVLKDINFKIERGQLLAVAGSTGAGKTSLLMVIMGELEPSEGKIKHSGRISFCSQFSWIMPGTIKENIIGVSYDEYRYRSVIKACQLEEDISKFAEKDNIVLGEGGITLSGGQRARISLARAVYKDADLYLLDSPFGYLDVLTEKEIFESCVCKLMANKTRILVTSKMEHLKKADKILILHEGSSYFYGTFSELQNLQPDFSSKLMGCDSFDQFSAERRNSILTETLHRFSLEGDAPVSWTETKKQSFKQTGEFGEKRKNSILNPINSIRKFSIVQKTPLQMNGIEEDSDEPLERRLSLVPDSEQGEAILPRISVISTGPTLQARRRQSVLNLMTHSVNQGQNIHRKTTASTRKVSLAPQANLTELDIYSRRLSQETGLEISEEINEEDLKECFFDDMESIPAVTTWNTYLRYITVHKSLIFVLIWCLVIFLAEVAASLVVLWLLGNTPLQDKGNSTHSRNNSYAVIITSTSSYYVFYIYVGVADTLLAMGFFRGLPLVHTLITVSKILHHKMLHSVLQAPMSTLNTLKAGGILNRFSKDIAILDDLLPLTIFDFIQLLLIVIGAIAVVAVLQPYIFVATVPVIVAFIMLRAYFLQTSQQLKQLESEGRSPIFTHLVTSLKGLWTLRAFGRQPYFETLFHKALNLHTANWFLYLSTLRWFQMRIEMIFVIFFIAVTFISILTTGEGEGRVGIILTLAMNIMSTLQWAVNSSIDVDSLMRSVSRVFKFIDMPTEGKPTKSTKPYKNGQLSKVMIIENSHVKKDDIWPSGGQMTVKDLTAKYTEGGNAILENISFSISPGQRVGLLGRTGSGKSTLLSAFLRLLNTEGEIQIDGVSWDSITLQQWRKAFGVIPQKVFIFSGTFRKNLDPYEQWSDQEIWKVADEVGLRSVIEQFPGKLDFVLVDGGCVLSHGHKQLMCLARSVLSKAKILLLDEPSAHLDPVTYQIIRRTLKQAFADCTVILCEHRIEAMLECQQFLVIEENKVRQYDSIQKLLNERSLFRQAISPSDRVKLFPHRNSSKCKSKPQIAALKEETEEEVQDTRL

Structure (SMILES) | EC50 [1] | Emax [2] | EC50 [3] | Emax [4]
CC(C)C[C@H]1C(=O)N2CCCC[C@@H]2C(=O)N[C@H](Cc2ccccc2)COc2cnc3ccccc3c2C(=O)N[C@H](C(=O)NCCc2noc(C3CCC3)n2)CC(=O)N1C [Example 128, (9S,13S,19aR,22R)-22-benzyl-N-(2-(5-cyclobutyl-1,2,4-oxadiazol-3-yl)ethyl)-13-isobutyl-12-methyl-7,11,14,20-tetraoxo-7,8,9,10,11,12,13,14,17,18,19,19a,20,21,22,23-hexadecahydro-16H-pyrido[2′,1′:6,7][1]oxa[4,7,10,14]tetraazacycloheptadecino[17,16-c]quinoline-9-carboxamide] | 190 nM | 292% |  | 
COc1cccc(CCNC(=O)[C@@H]2CC(=O)N(C)[C@@H](CC(C)C)C(=O)N3CCN(C(C)=O)C[C@@H]3C(=O)N[C@H](Cc3ccccc3)COc3ccc4ccccc4c3C(=O)N2)c1 [Example 750, (4aR,7R,18S,22S)-3-Acetyl-7-benzyl-22-isobutyl-N-(3-methoxyphenethyl)-21-methyl-5,16,20,23-tetraoxo-2,3,4,4a,5,6,7,8,16,17,18,19,20,21,22,23-hexadecahydro-1H-naphtho[1,2-p]pyrazino[2,1-f][1]oxa[4,7,10,14]tetraazacycloheptadecine-18-carboxamide] |  |  | 784 nM | 267%
CC(C)C[C@H]1C(=O)N2CCCC[C@@H]2C(=O)N[C@H](Cc2ccccc2)COc2cnc3ccccc3c2C(=O)N[C@H](C(=O)NCCc2c(F)cccc2F)CC(=O)N1C [Example 72, (9S,13S,19aR,22R)-22-benzyl-N-(2,6-difluorophenethyl)-13-isobutyl-12-methyl-7,11,14,20-tetraoxo-7,8,9,10,11,12,13,14,17,18,19,19a,20,21,22,23-hexadecahydro-16H-pyrido[2′,1′:6,7][1]oxa[4,7,10,14]tetraazacycloheptadecino[17,16-c]quinoline-9-carboxamide] | 142 nM | 335% |  | 
COc1cc(CCNC(=O)[C@@H]2CC(=O)N(C)[C@@H](CC(C)C)C(=O)N3CCCC[C@@H]3C(=O)N[C@H](Cc3ccccc3)COc3ccc4nc(C)n(C)c4c3C(=O)N2)cc(OC)c1 [Example 377, (8S,12S,18aR,21R)-21-benzyl-N-(3,5-dimethoxyphenethyl)-12-isobutyl-4,5,11-trimethyl-6,10,13,19-tetraoxo-6,7,8,9,10,11,12,13,16,17,18,18a,19,20,21,22-hexadecahydro-5H,15H-imidazo[4′,5′:5,6]benzo[1,2-p]pyrido[2,1-f][1]oxa[4,7,10,14]tetraazacycloheptadecine-8-carboxamide] | 704 nM | 111% |  | 
CC(C)C[C@H]1C(=O)N2CCCC[C@@H]2C(=O)N[C@H](Cc2ccccc2)COc2cnc3ccccc3c2C(=O)N[C@H](C(=O)NCCc2noc(C3CC3)n2)CC(=O)N1C [Example 80, (9S,13S,19aR,22R)-22-benzyl-N-(2-(5-cyclopropyl-1,2,4-oxadiazol-3-yl)ethyl)-13-isobutyl-12-methyl-7,11,14,20-tetraoxo-7,8,9,10,11,12,13,14,17,18,19,19a,20,21,22,23-hexadecahydro-16H-pyrido[2′,1′:6,7][1]oxa[4,7,10,14]tetraazacycloheptadecino[17,16-c]quinoline-9-carboxamide] | 170 nM | 308% |  | 
[2H]C([2H])([2H])Oc1cccc(CCNC(=O)[C@@H]2CC(=O)N(C)[C@@H](CC(C)C)C(=O)N(CCC3CCCCC3)CC(=O)N[C@H](Cc3ccccc3)COc3ccc4nc(C)oc4c3C(=O)N2)c1 [Example 381, (8R,14S,18S)-8-benzyl-12-(2-cyclohexylethyl)-14-isobutyl-N-(3-(methoxy-d3)phenethyl)-2,15-dimethyl-10,13,16,20-tetraoxo-7,8,9,10,11,12,13,14,15,16,17,18,19,20-tetradecahydrooxazolo[4′,5′:5,6]benzo[1,2-p][1]oxa[4,7,10,14]tetraazacycloheptadecine-18-carboxamide] | 68 nM | 322% |  | 
CC(C)C[C@H]1C(=O)N(C)C2(CC2)C(=O)N[C@H](Cc2ccccc2)COc2cnc3ccc(F)cc3c2C(=O)N[C@H](C(=O)NCCc2cccc(C#N)c2)CC(=O)N1C [Example 168, (3′S,7′S,13′R)-13′-benzyl-N-(3-cyanophenethyl)-20′-fluoro-7′-isobutyl-6′,9′-dimethyl-1′,5′,8′,11′-tetraoxo-2′,3′,4′,5′,6′,7′,8′,9′,11′,12′,13′,14′-dodecahydro-1′H-spiro[cyclopropane-1,10′-[1]oxa[4,7,10,14]tetraazacycloheptadecino[17,16-c]quinoline]-3′-carboxamide] | 338 nM | 193% |  | 
COc1cc(OC)c2c(c1)OC[C@@H](Cc1ccccc1)NC(=O)CN(CCC1CCCCC1)C(=O)[C@H](CC(C)C)N(C)C(=O)C[C@@H](C(=O)NCCc1ccc3c(c1)OCC3)NC2=O [Example 276, (3R,9S,13S)-3-benzyl-7-(2-cyclohexylethyl)-N-(2-(2,3-dihydrobenzofuran-6-yl)ethyl)-9-isobutyl-16,18-dimethoxy-10-methyl-5,8,11,15-tetraoxo-2,3,4,5,6,7,8,9,10,11,12,13,14,15-tetradecahydrobenzo[p][1]oxa[4,7,10,14]tetraazacycloheptadecine-13-carboxamide] | 91 nM | 333% |  | 
COc1cccc(CCNC(=O)[C@@H]2CC(=O)N(C)[C@@H](CC(C)C)C(=O)N3CCN(S(=O)(=O)c4cc(OC)ccc4F)C[C@@H]3C(=O)N[C@H](Cc3ccccc3)COc3ccc4ccccc4c3C(=O)N2)c1 [Example 740, (4aR,7R,18S,22S)-7-benzyl-3-((2-fluoro-5-methoxyphenyl)sulfonyl)-22-isobutyl-N-(3-methoxyphenethyl)-21-methyl-5,16,20,23-tetraoxo-2,3,4,4a,5,6,7,8,16,17,18,19,20,21,22,23-hexadecahydro-1H-naphtho[1,2-p]pyrazino[2,1-f][1]oxa[4,7,10,14]tetraazacycloheptadecine-18-carboxamide] |  |  | 111 nM | 280%
COc1cccc2c1C(=O)N[C@H](C(=O)NCCc1ccc3ccoc3c1)CC(=O)N(C)[C@@H](CC(C)C)C(=O)N(CCC1CCCCC1)CC(=O)N[C@H](Cc1ccccc1)CO2 (racemic) [Example 14, (3R,9S,13RS)-N-(2-(benzofuran-6-yl)ethyl)-3-benzyl-7-(2-cyclohexylethyl)-9-isobutyl-16-methoxy-10-methyl-5,8,11,15-tetraoxo-2,3,4,5,6,7,8,9,10,11,12,13,14,15-tetradecahydrobenzo[p][1]oxa[4,7,10,14]tetraazacycloheptadecine-13-carboxamide] | 160 nM | 185% |  | 
COc1cccc(CCNC(=O)[C@@H]2CC(=O)N(C)[C@@H](CC(C)C)C(=O)N(C)[C@@H](C)C(=O)N[C@H](Cc3ccccc3)COc3cnc4ccccc4c3C(=O)N2)c1 [Example 572, (3S,7S,10S,13R)-13-benzyl-7-isobutyl-N-(3-methoxyphenethyl)-6,9,10-trimethyl-1,5,8,11-tetraoxo-1,2,3,4,5,6,7,8,9,10,11,12,13,14-tetradecahydro-[1]oxa[4,7,10,14]tetraazacycloheptadecino[17,16-c]quinoline-3-carboxamide] |  |  | 701 nM | 200%
CCc1nc(CCNC(=O)[C@@H]2CC(=O)N(C)[C@@H](CC(C)C)C(=O)N3CCOC[C@@H]3C(=O)N[C@H](Cc3ccccc3)COc3ccc4ccccc4c3C(=O)N2)no1 [Example 44, (4aR,7R,18S,22S)-7-benzyl-N-(2-(5-ethyl-1,2,4-oxadiazol-3-yl)ethyl)-22-isobutyl-21-methyl-5,16,20,23-tetraoxo-1,2,4,4a,5,6,7,8,16,17,18,19,20,21,22,23-hexadecahydronaphtho[1,2-p][1,4]oxazino[3,4-f][1]oxa[4,7,10,14]tetraazacycloheptadecine-18-carboxamide] | 571 nM | 247% |  | 
COc1cccc(CCNC(=O)[C@@H]2CC(=O)N(C)[C@@H](CC(C)C)C(=O)N(CCC3CCCCC3)CC(=O)N[C@H](Cc3ccccc3)COc3ccc4nc(C)oc4c3C(=O)N2)c1 [Example 380, (8R,14S,18S)-8-benzyl-12-(2-cyclohexylethyl)-14-isobutyl-N-(3-methoxyphenethyl)-2,15-dimethyl-10,13,16,20-tetraoxo-7,8,9,10,11,12,13,14,15,16,17,18,19,20-tetradecahydrooxazolo[4′,5′:5,6]benzo[1,2-p][1]oxa[4,7,10,14]tetraazacycloheptadecine-18-carboxamide] | 65 nM | 325% |  | 
CC(C)C[C@H]1C(=O)N(C)C2(CC2)C(=O)N[C@H](Cc2ccccc2)COc2ccc3ncc(F)cc3c2C(=O)N[C@H](C(=O)NCCc2cc(C3CC3)no2)CC(=O)N1C [Example 545, (3′S,7′S,13′R)-13′-benzyl-N-(2-(3-cyclopropylisoxazol-5-yl)ethyl)-20′-fluoro-7′-isobutyl-6′,9′-dimethyl-1′,5′,8′,11′-tetraoxo-2′,3′,4′,5′,6′,7′,8′,9′,11′,12′,13′,14′-dodecahydro-1′H-spiro[cyclopropane-1,10′-[1]oxa[4,7,10,14]tetraazacycloheptadecino[16,17-f]quinoline]-3′-carboxamide] |  |  | 349 nM | 385%
COc1cccc(CCNC(=O)[C@@H]2CC(=O)N(C)[C@@H](CC(C)C)C(=O)N(C)C3(CC3)C(=O)N[C@H](Cc3ccccc3)COc3ccc4cnccc4c3C(=O)N2)c1 [Example 494, (3′S,7′S,13′R)-13′-benzyl-7′-isobutyl-N-(3-methoxyphenethyl)-6′,9′-dimethyl-1′,5′,8′,11′-tetraoxo-2′,3′,4′,5′,6′,7′,8′,9′,11′,12′,13′,14′-dodecahydro-1′H-spiro[cyclopropane-1,10′-[1]oxa[4,7,10,14]tetraazacycloheptadecino[16,17-f]isoquinoline]-3′-carboxamide] |  |  | 260 nM | 295%
